Patent US10021881B2, “Vaporized administration of pesticides” (priority 2016, dated 2018)

Assay: Thermo Gravity Analysis (TGA) degradation temperature
Assay type: physicochemical
Settings: for temperature at which degradation began (TGA): ramp 10° C. per minute to 300° C.
Description: This example relates to experiments performed to determine the degradation temperatures of pyrimethanil technical compounds and fungicide samples. In the present example, pyrimethanil compounds from China (compound 1) and Europe (compound 2) were analyzed by Thermo Gravity Analysis (TGA). The pyrimethanil samples were run in both air and nitrogen atmospheres on the Q5000 TGA instrument (TA Instruments) equipped in open platinum pans, and using standard TGA test methods as follows: select gas 1 and 2, data storage on, ramp at 10° C. per minute to 300° C., data storage off, and end method. An isothermal method was also performed according to standard methods.

Cc1cc(C)nc(Nc2ccccc2)n1 [compound 1]
temperature at which degradation began (TGA) (in air): about 120.3 °C
temperature at which degradation was complete (TGA) (in both air and nitrogen): about 200 °C
temperature at which degradation began (TGA) (in nitrogen): about 120.6 °C
